Laboratory results as given in patent publication US20230167073A1 (Teijin Pharma Limited, priority 2020, published 2023).

Target: T1, Human TRPC6 (Homo sapiens, UniProt Q9Y210)
T1 construct: expressed in transfected cells
T1 sequence (Q9Y210 1-931): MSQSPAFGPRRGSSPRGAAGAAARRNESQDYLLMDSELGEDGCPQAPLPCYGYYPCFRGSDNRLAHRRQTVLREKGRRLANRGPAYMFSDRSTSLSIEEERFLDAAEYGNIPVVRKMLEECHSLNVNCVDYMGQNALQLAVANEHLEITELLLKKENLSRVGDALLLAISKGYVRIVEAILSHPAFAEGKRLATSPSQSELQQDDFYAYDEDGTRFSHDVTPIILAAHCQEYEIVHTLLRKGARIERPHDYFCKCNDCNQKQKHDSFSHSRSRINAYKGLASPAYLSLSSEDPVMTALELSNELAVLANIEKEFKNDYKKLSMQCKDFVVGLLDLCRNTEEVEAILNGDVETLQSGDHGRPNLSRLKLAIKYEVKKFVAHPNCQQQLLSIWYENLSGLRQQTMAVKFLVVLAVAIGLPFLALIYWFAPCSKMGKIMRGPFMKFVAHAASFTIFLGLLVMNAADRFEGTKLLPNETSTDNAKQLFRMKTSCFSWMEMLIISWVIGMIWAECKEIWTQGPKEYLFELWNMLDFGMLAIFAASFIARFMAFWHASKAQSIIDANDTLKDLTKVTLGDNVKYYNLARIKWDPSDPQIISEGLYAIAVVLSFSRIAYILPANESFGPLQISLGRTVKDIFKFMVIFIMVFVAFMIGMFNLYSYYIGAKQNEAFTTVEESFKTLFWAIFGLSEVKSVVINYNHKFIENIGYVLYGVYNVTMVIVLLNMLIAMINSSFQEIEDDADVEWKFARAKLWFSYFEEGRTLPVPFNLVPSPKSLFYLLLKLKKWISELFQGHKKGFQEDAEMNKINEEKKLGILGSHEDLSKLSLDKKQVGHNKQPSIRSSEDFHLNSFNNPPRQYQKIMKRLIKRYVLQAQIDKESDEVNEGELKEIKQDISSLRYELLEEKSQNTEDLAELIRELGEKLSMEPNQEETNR
Assay: Evaluation of TRPC6 channel inhibitory activity (1), FLIPR Calcium 5 Assay Kit, OAG stimulation (Compound Nos. 1-1293)
Type: cell-based
Conditions: Human TRPC6 stably-expressing cells, OAG 30 μM, FLIPR Calcium 5 Assay Kit; read-out: Inhibitory activity (pIC50 class) (converted)
How it was run: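 Cells stably expressing human TRPC6, plated 24 h before, were loaded 30 min with Calcium 5 dye plus probenecid in HEPES-HBSS. Compound was added 20 min before OAG (30 μM final) and fluorescence tracked on FLIPR. Inhibition normalised to no-compound and no-compound/no-OAG wells; pIC50 from four-parameter fit, reported as +/++/+++ categories.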

| Compound | IC50 [nM] |
| --- | --- |
| Cn1nc(C2CC2)cc1Oc1cc(C#N)ccc1-c1ccc(C(N)C(=O)O)cn1 (stereo not shown) [compound 426, 2-amino-2-[6-[4-cyano-2-(5-cyclopropyl-2-methylpyrazol-3-yl)oxyphenyl]pyridin-3-yl]acetic acid] | < 10 |
| CCN(CC)c1nnc(Oc2cc(C#N)ccc2-c2ncc(CCN)cn2)s1 [compound 724, 4-[5-(2-aminoethyl)pyrimidin-2-yl]-3-[[5-(diethylamino)-1,3,4-thiadiazol-2-yl]oxy]benzonitrile] | < 10 |
| Cn1nc(C(F)(F)F)cc1Oc1cc(C#N)ccc1-n1cc(N2CCNCC2=O)cn1 [Compound 220, 3-[2-methyl-5-(trifluoromethyl)pyrazol-3-yl]oxy-4-[4-(2-oxopiperazin-1-yl)pyrazol-1-yl]benzonitrile] | > 1000 |
| Cc1nc(Oc2cc(C#N)ccc2-n2cc([C@@H](O)CN)cn2)cc(N2CCCCC2)n1 [Compound 233, 4-[4-[(1R)-2-amino-1-hydroxyethyl]pyrazol-1-yl]-3-(2-methyl-6-piperidin-1-ylpyrimidin-4-yl)oxybenzonitrile] | < 10 |
| Cn1nc(-c2ncccn2)cc1Oc1cc(C#N)ccc1-c1ccc([C@H](O)CN)cn1 [compound 540, 4-[5-[(1S)-2-amino-1-hydroxyethyl]pyridin-2-yl]-3-(2-methyl-5-pyrimidin-2-ylpyrazol-3-yl)oxybenzonitrile] | > 1000 |
| Cc1cc(Oc2cc(C#N)ccc2-c2ccc(C3(CN)COC3)cn2)cc(N2CCOCC2)n1 [compound 613, 4-[5-[3-(aminomethyl)oxetan-3-yl]pyridin-2-yl]-3-(2-methyl-6-morpholin-4-ylpyridin-4-yl)oxybenzonitrile] | 10 to 1000 |
| CCNc1cc(Oc2cc(C#N)ccc2-c2ncc(CN)cn2)cc(C)n1 [compound 643, 4-[5-(aminomethyl)pyrimidin-2-yl]-3-[2-(ethylamino)-6-methylpyridin-4-yl]oxybenzonitrile] | 10 to 1000 |
| Cc1c(Oc2cc(C#N)ccc2-c2ncc(CCN)cn2)cnn1-c1ccccn1 [compound 830, 4-[5-(2-aminoethyl)pyrimidin-2-yl]-3-(5-methyl-1-pyridin-2-ylpyrazol-4-yl)oxybenzonitrile] | 10 to 1000 |
| Cc1nc(Oc2cc(C#N)ccc2-c2ncc([C@H](O)CN)cn2)cc(N2CCO[C@@H](C)C2)n1 [compound 559, 4-[5-[(1S)-2-amino-1-hydroxyethyl]pyrimidin-2-yl]-3-[2-methyl-6-[(2S)-2-methylmorpholin-4-yl]pyrimidin-4-yl]oxybenzonitrile] | 10 to 1000 |
| Cc1cc(Oc2cc(C#N)ccc2-c2ncc([C@H](O)CN)cn2)cc(N2CCOCC2)n1 [compound 430, 4-[5-[(1S)-2-amino-1-hydroxyethyl]pyrimidin-2-yl]-3-(2-methyl-6-morpholin-4-ylpyridin-4-yl)oxybenzonitrile] | < 10 |
| Cc1nc(OCCC(F)(F)F)cc(Oc2cc(C#N)ccc2-c2ccc(CCN)cc2)n1 [Compound 37, 4-[4-(2-aminoethyl)phenyl]-3-[2-methyl-6-(3,3,3-trifluoropropoxy)pyrimidin-4-yl]oxybenzonitrile] | > 1000 |
| Cc1nc(Oc2cc(C#N)ccc2-c2ccc3c(c2)CCC3N)cc(N2CCOCC2)n1 (stereo not shown) [Compound 132, 4-(1-amino-2,3-dihydro-1H-inden-5-yl)-3-(2-methyl-6-morpholin-4-ylpyrimidin-4-yl)oxybenzonitrile] | 10 to 1000 |
| Cn1nc(C2CC2)cc1Oc1cc(C#N)ccc1-c1ccc2c(N)noc2c1 [compound 414, 4-(3-amino-1,2-benzoxazol-6-yl)-3-(5-cyclopropyl-2-methylpyrazol-3-yl)oxybenzonitrile] | > 1000 |
| COCCN(C)c1cc(Oc2cc(C#N)ccc2-c2ncc(CCN)cn2)nc(C)n1 [compound 862, 4-[5-(2-aminoethyl)pyrimidin-2-yl]-3-[6-[2-methoxyethyl(methyl)amino]-2-methylpyrimidin-4-yl]oxybenzonitrile] | 10 to 1000 |
| CN(C)c1cc(Oc2cc(C#N)ccc2-c2ncc(CN)cn2)n(C)n1 [compound 626, 4-[5-(aminomethyl)pyrimidin-2-yl]-3-[5-(dimethylamino)-2-methylpyrazol-3-yl]oxybenzonitrile] | < 10 |
| Cc1nc(NCC2CCOCC2)cc(Oc2cc(C#N)ccc2-c2ncc(CN)cn2)n1 [compound 636, 4-[5-(aminomethyl)pyrimidin-2-yl]-3-[2-methyl-6-(oxan-4-ylmethylamino)pyrimidin-4-yl]oxybenzonitrile] | > 1000 |
| Cc1nn(C2CCCCC2)cc1Oc1cc(C#N)ccc1-c1ncc(CCN)cn1 [compound 864, 4-[5-(2-aminoethyl)pyrimidin-2-yl]-3-(1-cyclohexyl-3-methylpyrazol-4-yl)oxybenzonitrile] | 10 to 1000 |
| Cc1cc(Oc2cc(C#N)ccc2-c2ccc(C(F)(F)CN)cn2)cc(N2CCOCC2)n1 [compound 307, 4-[5-(2-amino-1,1-difluoroethyl)pyridin-2-yl]-3-(2-methyl-6-morpholin-4-ylpyridin-4-yl)oxybenzonitrile] | 10 to 1000 |
| Cc1cc(Oc2cc(C#N)ccc2-n2cc(CCN)cn2)n(C)n1 [compound 304, 4-[4-(2-aminoethyl)pyrazol-1-yl]-3-(2,5-dimethylpyrazol-3-yl)oxybenzonitrile] | > 1000 |

The next lines start with the values.

| IC50 [nM] | Compound |
| --- | --- |
| < 10 | CN(C)c1cc(Oc2cc(C#N)ccc2-c2ncc([C@@H](F)CN)cn2)n(C)n1 [compound 906, 4-[5-[(1R)-2-amino-1-fluoroethyl]pyrimidin-2-yl]-3-[5-(dimethylamino)-2-methylpyrazol-3-yl]oxybenzonitrile] |
| < 10 | N#Cc1ccc(-c2ccc(CCN)cn2)c(Cn2cnc(-c3ccccc3F)c2)c1 [compound 1143, 4-[5-(2-aminoethyl)pyridin-2-yl]-3-[[4-(2-fluorophenyl)imidazol-1-yl]methyl]benzonitrile] |
| > 1000 | N#Cc1ccc(-c2ccc(CCN)cc2)c(Cn2cnc(-n3ccnn3)c2)c1 [compound 1122, 4-[4-(2-aminoethyl)phenyl]-3-[[4-(triazol-1-yl)imidazol-1-yl]methyl]benzonitrile] |
| < 10 | Cn1nc(-c2ccccn2)cc1Cc1cc(C#N)ccc1-c1ncc(CCN)cn1 [compound 1214, 4-[5-(2-aminoethyl)pyrimidin-2-yl]-3-[(2-methyl-5-pyridin-2-ylpyrazol-3-yl)methyl]benzonitrile] |
| 10 to 1000 | Cc1nc(C(C)C)cn1Cc1cc(C#N)ccc1-c1ncc(CN)cn1 [compound 1172, 4-[5-(aminomethyl)pyrimidin-2-yl]-3-[(2-methyl-4-propan-2-ylimidazol-1-yl)methyl]benzonitrile] |
| < 10 | CCc1nn(CC(C)C)cc1Oc1cc(C#N)ccc1-c1ncc(CCN)cn1 [compound 953, 4-[5-(2-aminoethyl)pyrimidin-2-yl]-3-[3-ethyl-1-(2-methylpropyl)pyrazol-4-yl]oxybenzonitrile] |
| 10 to 1000 | Cc1nc(C2CCOCC2)cn1Cc1cc(C#N)ccc1-c1ccc(CN)cn1 [compound 1163, 4-[5-(aminomethyl)pyridin-2-yl]-3-[[2-methyl-4-(oxan-4-yl)imidazol-1-yl]methyl]benzonitrile] |
| 10 to 1000 | N#Cc1ccc(-c2ccc([C@@H](O)CN)cn2)c(Cn2cnc(-c3ccccc3)c2)c1 [compound 1138, 4-[5-[(1R)-2-amino-1-hydroxyethyl]pyridin-2-yl]-3-[(4-phenylimidazol-1-yl)methyl]benzonitrile] |
| < 10 | Cn1nc(N2CC(F)(F)C(F)(F)C2)cc1Oc1cc(C#N)ccc1-c1ncc(CCN)cn1 [compound 877, 4-[5-(2-aminoethyl)pyrimidin-2-yl]-3-[2-methyl-5-(3,3,4,4-tetrafluoropyrrolidin-1-yl)pyrazol-3-yl]oxybenzonitrile] |
| > 1000 | Cc1nc(Sc2cc(C#N)ccc2-c2ncc(CN)cn2)cc(N2CCCC2)n1 [compound 1262, 4-[5-(aminomethyl)pyrimidin-2-yl]-3-(2-methyl-6-pyrrolidin-1-ylpyrimidin-4-yl)sulfanylbenzonitrile] |
| < 10 | CCN(CC)c1cc(Oc2cc(C#N)ccc2-c2ncc([C@@H](F)CN)cn2)n(C)n1 [compound 914, 4-[5-[(1R)-2-amino-1-fluoroethyl]pyrimidin-2-yl]-3-[5-(diethylamino)-2-methylpyrazol-3-yl]oxybenzonitrile] |
| < 10 | Cn1nc(N2CCOCC2)cc1Oc1cc(F)ccc1-c1ccc(CCN)cn1 [compound 975, 2-[6-[4-fluoro-2-(2-methyl-5-morpholin-4-ylpyrazol-3-yl)oxyphenyl]pyridin-3-yl]ethanamine] |
